Measured values reported in article PMC4358968, “Lipid-Free Antigen B Subunits from Echinococcus granulosus: Oligomerization, Ligand Binding, and Membrane Interaction Properties” (PLoS Neglected Tropical Diseases, 2015).

How the values were obtained:
[1] = target: T1, EgAgB8/3 (antigen B subunit 3); test: fluorimetric titration of 12-AS (direct probe binding, TBS); set-up: species or system Echinococcus granulosus
T1 construct: gene EgAgB3; recombinant lipid-free (RP-HPLC delipidated) EgAgB8/3 mature subunit, GST fusion cleaved with thrombin; GenBank AAK64236

[2] = target: T2, EgAgB8/2 (antigen B subunit 2) (Echinococcus granulosus, UniProt Q27275); test: fluorimetric titration of 12-AS (direct probe binding, […]°C, TBS)
T2 construct: gene AgB2; recombinant lipid-free (RP-HPLC delipidated) EgAgB8/2 mature subunit, GST fusion cleaved with thrombin; GenBank AAC47169

[3] = target: recombinant EgAgB8/2 subunit of Echinococcus granulosus antigen B (Echinococcus granulosus); test: SEC; 100 uL of lipid-free EgAgB8/2 (324 uM) or EgAgB8/3 (320 uM) loaded separately on Superdex 200 HR 10/30 in PBS, 0.5 mL/min; apparent molecular weight against BSA, carbonic anhydrase and cytochrome c
[4] = target: recombinant EgAgB8/3 subunit of Echinococcus granulosus antigen B (Echinococcus granulosus); test: as above

CCCCCCC(CCCCCCCCCCC(=O)O)OC(=O)c1c2ccccc2cc2ccccc12 (stereo not shown) [12-AS, 12-(9-anthroyloxy) stearic acid]
Kd [1]: 340 ± 20 nM | Kd [2]: 160 ± 90 nM

recombinant EgAgB8/2 subunit of Echinococcus granulosus antigen B (natural protein)
stoichiometry N [3]: 7 to 8 subunits

recombinant EgAgB8/3 subunit of Echinococcus granulosus antigen B (natural protein)
stoichiometry N [4]: 4 to 5 subunits
